Target: T1, NP1 (Rhodnius prolixus, UniProt Q26239)
T1 construct: recombinant in E. coli BL21(DE3), reconstituted ferriheme b protein, two Cys-Cys disulfides
Assay: X-band EPR of nitrite complex
Assay type: binding
Settings: 300 mM NaNO2, 100 mM HEPES pH 7.2, 25% glycerol, 10 K; heme iron ligand

T1 sequence (Q26239 24-207): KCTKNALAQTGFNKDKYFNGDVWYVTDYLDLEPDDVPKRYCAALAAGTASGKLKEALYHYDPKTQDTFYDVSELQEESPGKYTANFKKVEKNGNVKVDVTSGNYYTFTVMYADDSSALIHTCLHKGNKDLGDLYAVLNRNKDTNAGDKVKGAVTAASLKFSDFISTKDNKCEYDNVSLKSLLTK

SMILES: O=NO [nitrite]
- X-band EPR of nitrite complex: NP1[NO2^–] also has a HALS signal with a similar ratio
